Assay results as given in paper PMC3280956, “DOGS: Reaction-Driven de novo Design of Bioactive Compounds” (PLoS Computational Biology, 2012).
Values belong to the compound of their own block, whether it stands above or below them.

How the values were obtained:
5-HT1D receptor = 5-HT1D receptor (Homo sapiens, UniProt P28221); assay: Cerep GPCR panel, antagonistic effect on 5-HT1D receptor; type: cell-based
δ2 opioid receptor = δ2 opioid receptor (Homo sapiens, UniProt P41143); assay: Cerep GPCR panel, antagonistic effect on δ2 opioid receptor; type: cell-based; conditions: n = 2
δ2 opioid receptor, sequence (P41143 whole entry): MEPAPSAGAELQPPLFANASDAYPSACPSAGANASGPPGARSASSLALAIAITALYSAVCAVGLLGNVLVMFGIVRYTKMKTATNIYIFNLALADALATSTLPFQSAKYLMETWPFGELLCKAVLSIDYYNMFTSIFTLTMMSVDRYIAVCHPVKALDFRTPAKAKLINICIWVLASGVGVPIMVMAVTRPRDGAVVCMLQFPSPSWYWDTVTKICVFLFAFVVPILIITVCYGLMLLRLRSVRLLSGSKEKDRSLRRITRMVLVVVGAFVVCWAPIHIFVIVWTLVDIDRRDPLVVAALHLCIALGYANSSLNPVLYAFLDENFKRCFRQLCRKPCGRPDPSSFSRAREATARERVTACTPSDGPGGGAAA

hH3R = hH3R (Homo sapiens, UniProt Q9Y5N1); assay: Competitive binding, displacement of [3H]Nα-methylhistamine at hH3R; conditions: averaged over four distinct tests
hH3R, sequence (Q9Y5N1 whole entry): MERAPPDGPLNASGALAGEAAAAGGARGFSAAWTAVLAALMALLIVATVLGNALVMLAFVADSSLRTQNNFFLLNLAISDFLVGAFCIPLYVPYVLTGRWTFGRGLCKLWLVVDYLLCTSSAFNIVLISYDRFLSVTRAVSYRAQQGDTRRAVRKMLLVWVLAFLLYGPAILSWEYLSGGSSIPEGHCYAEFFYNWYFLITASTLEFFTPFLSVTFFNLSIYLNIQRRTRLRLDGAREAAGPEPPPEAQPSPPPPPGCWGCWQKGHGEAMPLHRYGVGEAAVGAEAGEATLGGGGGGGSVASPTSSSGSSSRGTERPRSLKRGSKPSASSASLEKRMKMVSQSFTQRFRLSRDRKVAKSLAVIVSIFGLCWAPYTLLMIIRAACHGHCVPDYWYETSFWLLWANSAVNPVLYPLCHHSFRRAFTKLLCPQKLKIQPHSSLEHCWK
Protocol: (§1) In order to test for the hypothesis that a combination of the features – as found in compound 7 – might lead to hH4R affinity, compound 7 was selected for synthesis and testing. […] Binding affinity of compound 7 was determined in a competitive binding assay by measuring displacement of radioactively labeled [^3H]histamine bound to hH4R [42]. Membrane preparations of insect Sf9 cells expressing hH4R together with G-protein subunits Gαi2 and Gβ1γ2 were performed to yield the protein. A similar assay was used to measure the activity on hH3R (reference ligand: [^3H]N ^α-methylhistamine).

hH4R = molecular target: T1, hH4R (Homo sapiens, UniProt Q9H3N8); assay: Competitive binding, displacement of [3H]histamine, Sf9 membranes expressing hH4R; conditions: three measurements
T1 construct: made in house; host or cells: insect Sf9 cells (membrane preparations)
Protocol: as §1

other GPCRs in the panel = assay: Cerep panel, other human GPCRs; type: cell-based; conditions: remaining GPCRs of the 30-receptor panel
κ opioid receptor = κ opioid receptor (Homo sapiens, UniProt P41145)
κ opioid receptor, sequence (P41145 whole entry): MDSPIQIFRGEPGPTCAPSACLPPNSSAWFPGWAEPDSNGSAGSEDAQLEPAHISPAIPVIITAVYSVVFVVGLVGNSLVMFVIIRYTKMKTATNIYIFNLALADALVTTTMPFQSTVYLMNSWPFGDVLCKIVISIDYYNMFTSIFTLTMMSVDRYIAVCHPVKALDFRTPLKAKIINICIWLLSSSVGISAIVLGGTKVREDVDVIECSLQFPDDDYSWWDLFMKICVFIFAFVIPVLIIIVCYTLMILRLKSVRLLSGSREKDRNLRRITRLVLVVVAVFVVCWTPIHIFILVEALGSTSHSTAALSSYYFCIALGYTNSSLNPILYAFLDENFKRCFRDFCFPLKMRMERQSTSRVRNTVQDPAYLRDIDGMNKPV

Trypsin (bovine) = molecular target: Trypsin (bovine); design: method as in PMID 15771442; conditions: cited from earlier work
Thrombin = conditions: cited from earlier work
Trypsin = conditions: cited from earlier work
γ-secretase = γ-secretase (Homo sapiens, UniProt P49768); assay: Aβ sandwich ELISA in supernatants of CHO cells overexpressing human APP and presenilin-1; type: cell-based; conditions: for Modulation of γ-secretase activity (type): Aβ38/40/42 ELISA, 0.1-40 μM
Protocol: One-step reactions yielded the desired products in both cases. […] Synthesized compounds were tested for their ability to modulate the γ-secretase product spectrum as previously described. CHO cells with stable overexpression of human APP and presenilin-1 were treated with increasing concentrations of 3 and 4. Subsequently, concentrations of secreted Aβ peptides were detected in cell supernatants by sandwich ELISA using C-terminus specific antibodies that distinguish between Aβ38, Aβ40, and Aβ42 peptide species. […] This pattern of inverse γ-secretase modulation has previously been observed, e.g. with derivatives of the non-steroidal anti-inflammatory drug indomethacin [35]. […] Compounds 3 and 4 can serve as tool compounds and – more importantly – as starting points for an optimization of the pharmacological profile by structural modification. […]
Figure S5. Modulation of γ-secretase activity by designed compounds 3 (A) and 4 (B). Both […]
higher levels of Aβ42. Concentrations of secreted Ab peptides were detected in cell supernatants by sandwich ELISA using C-terminus specific antibodies that distinguish between Aβ38, Aβ40, and Aβ42 peptide species as previously described.

5-HT1D receptor, sequence (P28221 whole entry): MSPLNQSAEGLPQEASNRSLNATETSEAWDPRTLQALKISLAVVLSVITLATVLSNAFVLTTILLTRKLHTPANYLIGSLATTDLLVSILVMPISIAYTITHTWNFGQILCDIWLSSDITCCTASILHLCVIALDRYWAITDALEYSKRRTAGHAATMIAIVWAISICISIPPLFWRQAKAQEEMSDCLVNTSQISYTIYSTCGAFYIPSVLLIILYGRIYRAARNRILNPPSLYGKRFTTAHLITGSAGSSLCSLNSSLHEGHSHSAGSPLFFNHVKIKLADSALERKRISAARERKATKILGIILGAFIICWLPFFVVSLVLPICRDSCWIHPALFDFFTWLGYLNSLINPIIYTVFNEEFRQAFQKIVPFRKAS

IC50 (5-HT1D receptor; reference compound): 1100 nM
SMILES: CSc1ccc2c(c1)C(N1CCN(C)CC1)Cc1ccccc1S2 (stereo not drawn) [methiothepin, reference compound]

residual activity of the receptor (δ2 opioid receptor): 76%
residual activity of the receptor (5-HT1D receptor; antagonistic effect, n = 2): 62%
Ki (hH3R): 466000 ± 209000 nM
Ki (hH4R): 436000 ± 137000 nM
agonistic effect, % of the effect of the reference agonist U50488 (κ opioid receptor): 21%
SMILES: Clc1cccc(-c2cn(CCOCCN3CCNCC3)nn2)c1 [Compound 7]
response at other GPCRs in the panel (other GPCRs in the panel): only weak responses in the single digit or low double-digit percent range

SMILES: CN[C@H](Cc1ccccc1)C(=O)N1CCC[C@H]1C(=O)N[C@H](C=O)CCCN=C(N)N [Efegatran]
Ki (Trypsin (bovine)): 9.1 nM
Ki (Thrombin): 18 nM

SMILES: N=C(N)Nc1ccc(C(=O)Oc2ccc(SCCN3C(=O)CCC3=O)cc2)cc1 [Patamostat]
IC50 (Trypsin): 39 nM
IC50 (Thrombin): 1900 nM

Modulation of γ-secretase activity (type) (γ-secretase): inverse modulators
Aβ38 levels (γ-secretase; secreted Aβ38, CHO cells, increasing concentrations): decrease
Aβ42 levels (γ-secretase; secreted Aβ42, CHO cells, increasing concentrations): dose-dependent increase
SMILES: COc1cc(-n2c(C)ccc2C)c(OC)cc1NC(=O)c1ccccc1 [Compound 3]

SMILES: CC1=CCN(C(=O)C(Cc2cccc(C(=N)N)c2)NS(=O)(=O)c2ccc3c(c2)CN(C)CC3)C(C(=O)O)C1 (stereo not drawn) [UK-156406]
Ki (Trypsin): 26 nM
Ki (Thrombin): 0.46 nM

SMILES: CN(C)C(=O)COC(=O)Cc1ccc(OC(=O)c2ccc(NC(=N)N)cc2)cc1 [Camostat]
Ki (Trypsin): 50.6 nM

Modulation of γ-secretase activity (type) (γ-secretase): inverse modulators
SMILES: COc1ccc(N2CCN(C(=O)c3ccc(-c4cc(C(F)(F)F)ccc4Cl)o3)CC2)cc1 [Compound 4]
